Source: ChEMBL document CHEMBL6178013, “Ferroptosis of Cancer Cells via Tubulin Degradation and Mitochondrial Dysfunction: A Novel Mechanism of Anticancer Effect for Small-Molecule Anion Transporters” (J Med Chem, 2025)
Activity calls are given as the source filed them. The rule behind the calls is not given here.

Experiments:
Chloride [1] = assay: Binding affinity to chloride anions assessed as fold increase in anionophoric activity in egg-yolk L-alpha-phosphatidylcholine liposome model measured per lipid by pyranine-based fluorescent assay relative to m-Bimbe
Liposome = assay: Disruption of egg-yolk L-alpha-phosphatidylcholine liposome model membrane assessed as calcein leakage by fluorescence based assay; type: subcellular
Chloride [2] = assay: Binding affinity to chloride anions assessed as chloride efflux in egg-yolk L-alpha-phosphatidylcholine liposome model harboring intravesicular LiCl/extravesicular NaNO3
Chloride [3] = assay: Binding affinity to chloride anions assessed as chloride efflux in egg-yolk L-alpha-phosphatidylcholine liposome model harboring intravesicular NaCl/extravesicular NaHCO3
Chloride [4] = assay: Binding affinity to chloride anions in human HeLa cells assessed as decrease in red fluorescence in cytoplasm at 5 uM incubated for 1.5 hrs by MR-(RR)2 staining based analysis; type: cell-based
Chloride [5] = assay: Binding affinity to chloride anions in human HeLa cells assessed as increase in chloride influx at 1 uM measured after 15 mins by inverted fluorescence microscopy; type: cell-based
Chloride [6] = assay: Binding affinity to chloride anions in human HeLa cells assessed as increase in chloride influx at 1 uM measured after 15 mins by flow cytometry; type: cell-based
Chloride [7] = assay: Binding affinity to chloride anions in human HeLa cells assessed as increase in chloride influx at 1 uM measured after 30 to 60 mins by inverted fluorescence microscopy; type: cell-based; settings: time 30-60 min
Chloride [8] = assay: Binding affinity to chloride anions in human HeLa cells assessed as increase in chloride influx at 1 uM measured after 30 to 60 mins by flow cytometry; type: cell-based; settings: time 30-60 min
HeLa [9] = assay: Cytotoxicity against human HeLa cells incubated for 48 hrs by MTT assay; type: functional, cell-based
A549 = assay: Cytotoxicity against human A549 cells incubated for 48 hrs by MTT assay; type: functional, cell-based; settings: A549, 48 h
HepG2 = assay: Cytotoxicity against human HepG2 cells incubated for 48 hrs by MTT assay; type: functional, cell-based; settings: HepG2, 48 h
HeLa [10] = assay: Cytotoxicity against human HeLa cells assessed as decrease in cell viability cultured in chloride-containing extracellular medium at 0.05 to 5 uM incubated for 12 hrs; type: functional, cell-based; settings: dose 0.05-5 µM
HeLa [11] = assay: Effect on ferroptosis pathway in human HeLa cells at 10 uM incubated for 48 hrs by KEGG analysis; type: functional, cell-based
HeLa [12] = assay: Cytotoxicity against human HeLa cells assessed as decrease in cell viability at 0.01 to 10 uM pretreated with Z-VAD-FMK/Fer-1 followed by compound addition by MTT assay; type: functional, cell-based; settings: dose 0.01-10 µM
HeLa [13] = assay: Cytotoxicity against human HeLa cells assessed as decrease in cell viability at 0.01 to 10 uM pretreated with 3-MA followed by compound addition by MTT assay; type: functional, cell-based; settings: dose 0.01-10 µM
HeLa [14] = assay: Cytotoxicity against human HeLa cells assessed as decrease in cell viability at 0.01 to 10 uM pretreated with Nec-1 followed by compound addition by MTT assay; type: functional, cell-based; settings: dose 0.01-10 µM
HeLa [15] = assay: Induction of mitochondrial membrane permeability in human HeLa cells assessed as red fluorescence at 0.1 uM incubated for 24 hrs by JC-1 staining based analysis (reference value: 98.5 %); type: functional
HeLa [16] = assay: Induction of mitochondrial membrane permeability in human HeLa cells assessed as green fluorescence at 1 uM incubated for 24 hrs by JC-1 staining based analysis (reference value: 1.5 %); type: functional
HeLa [17] = assay: Induction of lipid peroxidation in human HeLa cells assessed as increase in Fe2+ level incubated for 12 hrs by absorbance based assay; type: functional, cell-based; settings: dose 0.1-1 µM
HeLa [18] = assay: Induction of lipid peroxidation in human HeLa cells assessed as increase in MDA level incubated for 12 hrs by absorbance based assay; type: functional, cell-based; settings: dose 0.1-1 µM
HeLa [19] = assay: Induction of lipid peroxidation in human HeLa cells assessed as increase in ROS generation incubated for 24 hrs by flow cytometry; type: functional, cell-based; settings: dose 0.1-1 µM
HeLa [20] = assay: Induction of ferroptosis in human HeLa cells assessed as increase in caspase-3 activation at 0.1 to 1 uM incubated for 24 hrs by immunoblotting analysis; type: functional, cell-based; settings: dose 0.1-1 µM
HeLa [21] = assay: Induction of ferroptosis in human HeLa cells assessed as decrease in Bcl-2 level at 0.1 to 1 uM incubated for 24 hrs by immunoblotting analysis; type: functional, cell-based; settings: dose 0.1-1 µM
[22] = Half life in male CD-1 mouse at 1 mg/kg, iv measured for 0.083 to 48 hrs by HPLC/MS/MS analysis; type: ADME, organism-based; settings: in vivo, time 0.083-48 hrs
[23] = Tmax in male CD-1 mouse at 1 mg/kg, iv measured for 0.083 to 48 hrs by HPLC/MS/MS analysis; type: ADME, organism-based; settings: in vivo, time 0.083-48 hrs
[24] = AUC (0 to infinity) in male CD-1 mouse at 1 mg/kg, ip measured for 0.083 to 48 hrs by HPLC/MS/MS analysis; type: ADME, organism-based; settings: in vivo, time 0.083-48 hrs
[25] = MRT (0 to t) in male CD-1 mouse at 1 mg/kg, ip measured for 0.083 to 48 hrs by HPLC/MS/MS analysis; type: ADME, organism-based; settings: in vivo, time 0.083-48 hrs
[26] = Oral bioavailability in male CD-1 mouse at 1 mg/kg measured for 0.083 to 48 hrs by HPLC/MS/MS analysis; type: ADME, organism-based; settings: in vivo, time 0.083-48 hrs
HeLa [27] = assay: Antitumor activity against human HeLa cells xenografted in male Balb/C nude mouse assessed as average tumor size at 20 mg/kg, ip administered on every 2 days measured after 18 days (reference value: 1995.1 mm3); type: functional; settings: time 18 day
HeLa [28] = assay: Antitumor activity against human HeLa cells xenografted in male Balb/C nude mouse assessed as reduction in tumor weight at 10 mg/kg, ip administered on every 2 days measured after 18 days relative to control; type: functional; parameters: scale not given: the % may be the effect or the level left; settings: time 18 day
HeLa [29] = assay: Antitumor activity against human HeLa cells xenografted in male Balb/C nude mouse assessed as reduction in tumor weight at 20 mg/kg, ip administered on every 2 days measured after 18 days relative to control; type: functional; parameters: scale not given: the % may be the effect or the level left; settings: time 18 day
HeLa [30] = assay: Antitumor activity against human HeLa cells xenografted in male Balb/C nude mouse assessed as nuclear fragmentation at 10 to 20 mg/kg, ip administered on every 2 days measured after 18 days by H and E staining based analysis; type: functional, organism-based; settings: dose 10-20 mg/kg, time 18.0 day
[31] = Toxicity in male Balb/C nude mouse xenografted with human HeLa cells assessed as abnormalities in heart at 10 to 20 mg/kg, ip administered on every 2 days measured after 18 days by H and E staining based analysis; type: organism-based; settings: in vivo, 432 h, dose 10-20 mg/kg, time 18 day
[32] = Toxicity in male Balb/C nude mouse xenografted with human HeLa cells assessed as abnormalities in liver at 10 to 20 mg/kg, ip administered on every 2 days measured after 18 days by H and E staining based analysis; type: organism-based; settings: in vivo, 432 h, dose 10-20 mg/kg, time 18 day
[33] = Toxicity in male Balb/C nude mouse xenografted with human HeLa cells assessed as abnormalities in lung at 10 to 20 mg/kg, ip administered on every 2 days measured after 18 days by H and E staining based analysis; type: organism-based; settings: in vivo, 432 h, dose 10-20 mg/kg, time 18 day
[34] = Drug concentration in plasma of C57BL/6 mouse at 5 mg/kg, iv measured after 4 hrs by HPLC/MS/MS analysis; type: ADME, organism-based
[35] = Toxicity in male Balb/C nude mouse xenografted with human HeLa cells assessed as abnormalities in brain at 10 to 20 mg/kg, ip administered on every 2 days measured after 18 days by H and E staining based analysis; type: organism-based; settings: in vivo, 432 h, dose 10-20 mg/kg, time 18 day

Question: What does the source list for `Fc1cc(-c2nc3c(C(F)(F)F)cc(C(F)(F)F)cc3[nH]2)cc(-c2nc3c(C(F)(F)F)cc(C(F)(F)F)cc3[nH]2)c1`?
Answer: fold change (FC) (Chloride [1]): 2.32 10^2No_unit; Activity (Liposome): inactive; Activity (Chloride [2]): Active; Activity (Chloride [3]): Active; Activity (Chloride [4]): Active; The Result Reveals That Compound Can Alkalize Lysosomes; Activity (Chloride [5]): inactive; Activity (Chloride [6]): inactive; Activity (Chloride [7]): Active; Activity (Chloride [8]): Active; IC50 (HeLa [9]): 120 nM; IC50 (A549): 1680 nM; IC50 (HepG2): 2470 nM; Activity (HeLa [10]): Active; Activity (HeLa [11]): Active; Activity (HeLa [12]): Not active; Z-Vad-Fmk/Fer-1 Rescued Cells In Dose-Dependent Manner; Activity (HeLa [13]): Active; Activity (HeLa [14]): Active; Activity (HeLa [15]): 90.5%; Activity (HeLa [16]): 66.8%; Activity (HeLa [17]): Dose-dependent-effect; Activity (HeLa [18]): Dose-dependent-effect; Activity (HeLa [19]): Dose-dependent-effect; Activity (HeLa [20]): Active; Activity (HeLa [21]): Active; half-life [22]: 5.11 h; Tmax [23]: 4.8 min; AUC(0-inf) [24]: 4610 ng·h/mL; MRT last [25]: 24.9 h; bioavailability [26]: 22%; Activity (HeLa [27]): 626.1 mm3; Activity (HeLa [28]): 57%; Activity (HeLa [29]): 69%; Activity (HeLa [30]): Active; Activity [31]: Non-toxic; Activity [32]: Non-toxic; Activity [33]: Non-toxic; concentration at 4 h [34]: 99.2 µM; Activity [35]: Non-toxic
